From US4650801A, “Anti-cancer compositions for delivering 5-fluorouracil” (Taiho Pharmaceutical Company, Ltd., priority 1978, dated 1987)
Read-outs that look alike come from different tables or passages of the source.

Assays:
sarcoma 180 [1] = assay: Anti-cancer effect on subcutaneously transplanted sarcoma 180 in mice; assay type: in vivo, mouse
Description: (§1) The anti-cancer compositions of this invention are tested in mice by the following methods to determine acute toxicity, anti-cancer effect and therapeutic index
Tissues of sarcoma 180, 2×10^6, are subcutaneously transplanted in the back of male mice of ICR strain (6 mice in each group). A 5-fluorouracil (a) and uracil derivative (b) in the proportions listed in Tables 1-16 are suspended in a 5% solution of gum arabic to prepare a suspension. Twenty-four hours after the transplantation and during the following seven consecutive days the suspension is orally given to the animal once every day. On the 10th day after the transplantation, the tumor is removed from the body and weighed to calculate the average weight (T) of the tumors in the group to which the composition has been given and the corresponding weight (C) in the control group to determine the ratio T/C.

sarcoma 180 [2] = assay type: in vivo
Description: as §1
(§2) Male mice of ICR strain weighing 22±1 g are used, 5 mice in each group. A 5-fluorouracil (a) and uracil derivative (b) in the proportions listed in Tables 1-16 are suspended in a 5% solution of gum arabic to prepare a suspension, which is forcibly orally administered to each mouse through a tube at a dose of 1 ml/100 g. Over the following period of three weeks the mice are checked every day for poisoning, body weight and mortality. The LD50 is determined according to the up-and-down method 3 weeks after the administration.
Tissues of sarcoma 180, 2×10^6, are subcutaneously transplanted in the back of male mice of ICR strain (6 mice in each group). A 5-fluorouracil (a) and uracil derivative (b) in the proportions listed in Tables 1-16 are suspended in a 5% solution of gum arabic to prepare a suspension. Twenty-four hours after the transplantation and during the following seven consecutive days the suspension is orally given to the animal once every day.
The LD50 and ED50 values obtained above are used to determine the therapeutic index (LD50 /ED50).

male mice of ICR strain = assay: in vivo; conditions: 30240 min
Description: as §1, §2

[3] = (b) = 1(2-Tetrahydrofuryl)uracil, (b)/(a) mol ratio 1
[4] = (b) = 1(2-Tetrahydrofuryl)uracil, (b)/(a) mol ratio 2
[5] = (b) = 1(2-Tetrahydrofuryl)uracil, (b)/(a) mol ratio 5
[6] = (b) = 1Acetyluracil, (b)/(a) mol ratio 1
[7] = (b) = 1Acetyluracil, (b)/(a) mol ratio 2
[8] = (b) = 1Acetyluracil, (b)/(a) mol ratio 5
[9] = (b) = 1Cyclohexylcarbamoyluracil, (b)/(a) mol ratio 0.5
[10] = (b) = 1Cyclohexylcarbamoyluracil, (b)/(a) mol ratio 2
[11] = (b) = 1Cyclohexylcarbamoyluracil, (b)/(a) mol ratio 5
[12] = (b) = 1n-Hexylcarbamoyluracil, (b)/(a) mol ratio 1
[13] = (b) = 1n-Hexylcarbamoyluracil, (b)/(a) mol ratio 2
[14] = (b) = 1n-Hexylcarbamoyluracil, (b)/(a) mol ratio 10
[15] = (b) = 2'-Deoxycytidine, (b)/(a) mol ratio 1
[16] = (b) = 2'-Deoxycytidine, (b)/(a) mol ratio 2
[17] = (b) = 2'-Deoxycytidine, (b)/(a) mol ratio 10
[18] = (b) = 2'-Deoxyuridine, (b)/(a) mol ratio 1
[19] = (b) = 2'-Deoxyuridine, (b)/(a) mol ratio 2
[20] = (b) = 2'-Deoxyuridine, (b)/(a) mol ratio 20
[21] = (b) = 3Benzoyluracil, (b)/(a) mol ratio 1
[22] = (b) = 3Benzoyluracil, (b)/(a) mol ratio 2
[23] = (b) = 3Benzoyluracil, (b)/(a) mol ratio 10
[24] = (b) = 5Bromo-2'-deoxyuridine, (b)/(a) mol ratio 0.5
[25] = (b) = 5Bromo-2'-deoxyuridine, (b)/(a) mol ratio 2
[26] = (b) = 5Bromo-2'-deoxyuridine, (b)/(a) mol ratio 10
[27] = (b) = 5Bromouracil, (b)/(a) mol ratio 0.5
[28] = (b) = 5Bromouracil, (b)/(a) mol ratio 2
[29] = (b) = 5Bromouracil, (b)/(a) mol ratio 10
[30] = (b) = 5Iodouracil, (b)/(a) mol ratio 1
[31] = (b) = 5Iodouracil, (b)/(a) mol ratio 2
[32] = (b) = 5Iodouracil, (b)/(a) mol ratio 5
[33] = (b) = Cytidine, (b)/(a) mol ratio 1
[34] = (b) = Cytidine, (b)/(a) mol ratio 2
[35] = (b) = Cytidine, (b)/(a) mol ratio 10
[36] = (b) = Cytosine, (b)/(a) mol ratio 1
[37] = (b) = Cytosine, (b)/(a) mol ratio 2
[38] = (b) = Cytosine, (b)/(a) mol ratio 10
[39] = (b) = Orotic acid, (b)/(a) mol ratio 1
[40] = (b) = Orotic acid, (b)/(a) mol ratio 2
[41] = (b) = Orotic acid, (b)/(a) mol ratio 20
[42] = (b) = Thymidine, (b)/(a) mol ratio 0.5
[43] = (b) = Thymidine, (b)/(a) mol ratio 2
[44] = (b) = Thymidine, (b)/(a) mol ratio 10
[45] = (b) = Thymine, (b)/(a) mol ratio 0.5
[46] = (b) = Thymine, (b)/(a) mol ratio 2
[47] = (b) = Thymine, (b)/(a) mol ratio 10
[48] = (b) = Uridine, (b)/(a) mol ratio 1
[49] = (b) = Uridine, (b)/(a) mol ratio 2
[50] = (b) = Uridine, (b)/(a) mol ratio 20

## O=c1[nH]cc(F)c(=O)n1C1CCCO1 (stereo not drawn) [Compound 6, 3-(2-Tetrahydrofuryl)-5-fluorouracil]
Sarcoma 180 [1]; [3]
  ED50: 51 mg/kg
Sarcoma 180 [1]; [4]
  ED50: 29 mg/kg
Sarcoma 180 [1]; [5]
  ED50: 18 mg/kg
Sarcoma 180 [1]; [6]
  ED50: 32 mg/kg
Sarcoma 180 [1]; [7]
  ED50: 26 mg/kg
Sarcoma 180 [1]; [8]
  ED50: 16 mg/kg
Sarcoma 180 [1]; [9]
  ED50: 55 mg/kg
Sarcoma 180 [1]; [10]
  ED50: 46 mg/kg
Sarcoma 180 [1]; [11]
  ED50: 33 mg/kg
Sarcoma 180 [1]; [12]
  ED50: 59 mg/kg
Sarcoma 180 [1]; [13]
  ED50: 41 mg/kg
Sarcoma 180 [1]; [14]
  ED50: 28 mg/kg
Sarcoma 180 [1]; [15]
  ED50: 59 mg/kg
Sarcoma 180 [1]; [16]
  ED50: 47 mg/kg
Sarcoma 180 [1]; [17]
  ED50: 34 mg/kg
Sarcoma 180 [1]; [18]
  ED50: 53 mg/kg
Sarcoma 180 [1]; [19]
  ED50: 42 mg/kg
Sarcoma 180 [1]; [20]
  ED50: 26 mg/kg
Sarcoma 180 [1]; [21]
  ED50: 42 mg/kg
Sarcoma 180 [1]; [22]
  ED50: 32 mg/kg
Sarcoma 180 [1]; [23]
  ED50: 25 mg/kg
Sarcoma 180 [1]; [24]
  ED50: 49 mg/kg
Sarcoma 180 [1]; [25]
  ED50: 30 mg/kg
Sarcoma 180 [1]; [26]
  ED50: 22 mg/kg
Sarcoma 180 [1]; [27]
  ED50: 39 mg/kg
Sarcoma 180 [1]; [28]
  ED50: 26 mg/kg
Sarcoma 180 [1]; [29]
  ED50: 21 mg/kg
Sarcoma 180 [1]; [30]
  ED50: 26 mg/kg
Sarcoma 180 [1]; [31]
  ED50: 17 mg/kg
Sarcoma 180 [1]; [32]
  ED50: 11 mg/kg
Sarcoma 180 [1]; [33]
  ED50: 58 mg/kg
Sarcoma 180 [1]; [34]
  ED50: 39 mg/kg
Sarcoma 180 [1]; [35]
  ED50: 34 mg/kg
Sarcoma 180 [1]; [36]
  ED50: 56 mg/kg
Sarcoma 180 [1]; [37]
  ED50: 41 mg/kg
Sarcoma 180 [1]; [38]
  ED50: 24 mg/kg
Sarcoma 180 [1]; [39]
  ED50: 69 mg/kg
Sarcoma 180 [1]; [40]
  ED50: 61 mg/kg
Sarcoma 180 [1]; [41]
  ED50: 46 mg/kg
Sarcoma 180 [1]; [42]
  ED50: 67 mg/kg
Sarcoma 180 [1]; [43]
  ED50: 63 mg/kg
Sarcoma 180 [1]; [44]
  ED50: 60 mg/kg
Sarcoma 180 [1]; [45]
  ED50: 48 mg/kg
Sarcoma 180 [1]; [46]
  ED50: 27 mg/kg
Sarcoma 180 [1]; [47]
  ED50: 14 mg/kg
Sarcoma 180 [1]; [48]
  ED50: 43 mg/kg
Sarcoma 180 [1]; [49]
  ED50: 31 mg/kg
Sarcoma 180 [1]; [50]
  ED50: 29 mg/kg
Sarcoma 180 [1]; (b)/(a) mol ratio 0 (alone), oral, 50% cancer inhibition (T/C)
  ED50: 73 mg/kg
Sarcoma 180 [2]; [3]
  Therapeutic Index (LD50/ED50): 17.1
Sarcoma 180 [2]; [4]
  Therapeutic Index (LD50/ED50): 22.4
Sarcoma 180 [2]; [5]
  Therapeutic Index (LD50/ED50): 29.7
Sarcoma 180 [2]; [6]
  Therapeutic Index (LD50/ED50): 21.9
Sarcoma 180 [2]; [7]
  Therapeutic Index (LD50/ED50): 18.0
Sarcoma 180 [2]; [8]
  Therapeutic Index (LD50/ED50): 15.4
Sarcoma 180 [2]; [9]
  Therapeutic Index (LD50/ED50): 15.1
Sarcoma 180 [2]; [10]
  Therapeutic Index (LD50/ED50): 15.1
Sarcoma 180 [2]; [11]
  Therapeutic Index (LD50/ED50): 17.5
Sarcoma 180 [2]; [12]
  Therapeutic Index (LD50/ED50): 15.7
Sarcoma 180 [2]; [13]
  Therapeutic Index (LD50/ED50): 20.6
Sarcoma 180 [2]; [14]
  Therapeutic Index (LD50/ED50): 16.8
Sarcoma 180 [2]; [15]
  Therapeutic Index (LD50/ED50): 15.7
Sarcoma 180 [2]; [16]
  Therapeutic Index (LD50/ED50): 17.9
Sarcoma 180 [2]; [17]
  Therapeutic Index (LD50/ED50): 20.0
Sarcoma 180 [2]; [18]
  Therapeutic Index (LD50/ED50): 15.9
Sarcoma 180 [2]; [19]
  Therapeutic Index (LD50/ED50): 18.8
Sarcoma 180 [2]; [20]
  Therapeutic Index (LD50/ED50): 20.2
Sarcoma 180 [2]; [21]
  Therapeutic Index (LD50/ED50): 18.3
Sarcoma 180 [2]; [22]
  Therapeutic Index (LD50/ED50): 20.7
Sarcoma 180 [2]; [23]
  Therapeutic Index (LD50/ED50): 17.9
Sarcoma 180 [2]; [24]
  Therapeutic Index (LD50/ED50): 13.1
Sarcoma 180 [2]; [25]
  Therapeutic Index (LD50/ED50): 15.9
Sarcoma 180 [2]; [26]
  Therapeutic Index (LD50/ED50): 14.0
Sarcoma 180 [2]; [27]
  Therapeutic Index (LD50/ED50): 19.1
Sarcoma 180 [2]; [28]
  Therapeutic Index (LD50/ED50): 22.1
Sarcoma 180 [2]; [29]
  Therapeutic Index (LD50/ED50): 19.6
Sarcoma 180 [2]; [30]
  Therapeutic Index (LD50/ED50): 18.0
Sarcoma 180 [2]; [31]
  Therapeutic Index (LD50/ED50): 22.4
Sarcoma 180 [2]; [32]
  Therapeutic Index (LD50/ED50): 17.6
Sarcoma 180 [2]; [33]
  Therapeutic Index (LD50/ED50): 17.6
Sarcoma 180 [2]; [34]
  Therapeutic Index (LD50/ED50): 23.8
Sarcoma 180 [2]; [35]
  Therapeutic Index (LD50/ED50): 22.7
Sarcoma 180 [2]; [36]
  Therapeutic Index (LD50/ED50): 18.2
Sarcoma 180 [2]; [37]
  Therapeutic Index (LD50/ED50): 24.9
Sarcoma 180 [2]; [38]
  Therapeutic Index (LD50/ED50): 26.6
Sarcoma 180 [2]; [39]
  Therapeutic Index (LD50/ED50): 14.8
Sarcoma 180 [2]; [40]
  Therapeutic Index (LD50/ED50): 15.9
Sarcoma 180 [2]; [41]
  Therapeutic Index (LD50/ED50): 17.5
Sarcoma 180 [2]; [42]
  Therapeutic Index (LD50/ED50): 14.4
Sarcoma 180 [2]; [43]
  Therapeutic Index (LD50/ED50): 14.1
Sarcoma 180 [2]; [44]
  Therapeutic Index (LD50/ED50): 10.7
Sarcoma 180 [2]; [45]
  Therapeutic Index (LD50/ED50): -17.3
Sarcoma 180 [2]; [46]
  Therapeutic Index (LD50/ED50): 19.9
Sarcoma 180 [2]; [47]
  Therapeutic Index (LD50/ED50): 23.1
Sarcoma 180 [2]; [48]
  Therapeutic Index (LD50/ED50): 22.0
Sarcoma 180 [2]; [49]
  Therapeutic Index (LD50/ED50): 26.3
Sarcoma 180 [2]; [50]
  Therapeutic Index (LD50/ED50): 20.6
Sarcoma 180 [2]; (b)/(a) mol ratio 0 (alone)
  Therapeutic Index (LD50/ED50): 13.1
Male mice of ICR strain; [10]
  LD50: 694 mg/kg
Male mice of ICR strain; [17]
  LD50: 680 mg/kg
Male mice of ICR strain; [31]
  LD50: 380 mg/kg
Male mice of ICR strain; [39]
  LD50: 1020 mg/kg
